This is an account of results in US6215002A, “Pyrrolopyrrolone derivatives as inhibitors of neutrophil elastase” (priority 1996, dated 2001).

pIC50: −log10 of the molar value. Counter-ions that a name gives are not always drawn.

In assay [1] the target is T1, human neutrophil elastase (Homo sapiens, UniProt P08246).
T1 sequence (P08246 30-267): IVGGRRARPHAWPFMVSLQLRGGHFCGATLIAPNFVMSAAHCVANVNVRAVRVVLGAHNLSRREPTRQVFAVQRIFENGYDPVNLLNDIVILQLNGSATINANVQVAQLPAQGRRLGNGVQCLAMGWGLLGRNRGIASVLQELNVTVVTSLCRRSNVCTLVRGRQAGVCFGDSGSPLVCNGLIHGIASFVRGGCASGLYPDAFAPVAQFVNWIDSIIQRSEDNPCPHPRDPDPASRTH
In words: In vitro assay of human neutrophil elastase (HNE). Format: biochemical. The settings on record: 118 nM purified human neutrophil elastase, pH 8.6, 15 min incubation at 30° C., MeO-succinyl-alanyl-alanyl-prolyl-valyl-p-nitroanilide substrate; read-out: HNE IC50. An outline of the steps:
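Residual activity was taken as the 10 min rate of absorbance rise at 405 nm after adding 0.6 mM MeO-succinyl-AAPV-p-nitroanilide. Curve fitting of activity against concentration gave IC50.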

The subject of another assay is Intracellular elastase. The experiment in a line: Oral in vivo model using IL-8 induced lung infiltrates for the assessment of intracellular elastase inhibition (hamster test). The note with it: effective dose of less than 40 mg/kg, IL-8 intratracheal. The procedure, abridged:
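Fasted adult hamsters (n=4) given compound orally in water, with intratracheal 1 ug recombinant human IL-8; sacrificed 6 h later. Neutrophils from lung lavage and femoral bone marrow sonicated, granules disrupted, and elastase measured, with myeloperoxidase used to normalise for neutrophil recovery.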

In general, pIC50 refers to the negative decadic logarithm of the IC50, by convention in mol/L. On to `CC(C)[C@H]1C(=O)N(S(C)(=O)=O)[C@H]2CCN(C(=O)c3ccc(CN(C)C)cc3)[C@H]12.Cl` (relative stereo) [Example 175, rel-(3R,3aR,6aS)-4-(4-Dimethylaminomethyl-benzoyl)-3-isopropyl-1-methanesulfonyl-hexahydro-pyrrolo[3,2-b]pyrrol-2-one hydrochloride], for which the pIC50 in assay [1] is 7.13. Moreover, the duration of effect result in the assay with Intracellular elastase is “at least 6 hours”.
On the same counts, the results for `CC(C)[C@H]1C(=O)N(S(C)(=O)=O)[C@H]2CCN(C(=O)c3ccc(CN4CCN(C)CC4)cc3)[C@H]12.Cl.Cl` (relative stereo) [Example 176, rel-(3R,3aR,6aS)-3-Isopropyl-1-methanesulfonyl-4-[4-(4-methyl-piperazin-1-ylmethyl)-benzoyl]-hexahydro-pyrrolo[3,2-b]pyrrol-2-one dihydrochloride] are 7.05 and “at least 6 hours”.
As for `CC(C)[C@H]1C(=O)N(S(C)(=O)=O)[C@H]2CCN(C(=O)c3ccc(CN4CCOCC4)cc3)[C@H]12.Cl` (relative stereo) [Example 177, rel-(3R,3aR,6aS)-3-Isopropyl-1-methanesulfonyl-4-(4-morpholin-4-ylmethyl-benzoyl)-hexahydro-pyrrolo[3,2-b]pyrrol-2-one hydrochloride], in assay [1], the pIC50 was 7.70. Also, in the assay with Intracellular elastase, the duration of effect entry is recorded as “at least 6 hours”.
Consider `CC(C)[C@H]1C(=O)N(S(C)(=O)=O)[C@H]2CCN(C(=O)c3ccc(CN4CCCCCC4)cc3)[C@H]12` (relative stereo) [Example 178, rel-(3R,3aR,6aS)-4-(4-Azepin-1-ylmethyl-benzoyl)-3-isopropyl-1-methanesulfonyl-hexahydro-pyrrolo[3,2-b]pyrrol-2-one hydrochloride], for which the pIC50 in assay [1] is 7.17. Besides, in the assay on Intracellular elastase, the duration of effect entry was “at least 6 hours”.
Taken in the same sequence, the figures for `CC(C)NCc1ccc(C(=O)N2CC[C@H]3[C@H]2[C@@H](C(C)C)C(=O)N3S(C)(=O)=O)cc1.Cl` (relative stereo) [Example 179, rel-(3R,3aR,6aS)-3-Isopropyl-4-[4-(isopropylamino-methyl)-benzoyl]-1-methanesulfonyl-hexahydro-pyrrolo[3,2-b]pyrrol-2-one hydrochloride] were 7.33 and “at least 6 hours”.
On the same counts, the results for `CC(C)[C@H]1C(=O)N(S(C)(=O)=O)[C@H]2CCN(C(=O)c3ccc(CNC4CC4)cc3)[C@H]12.Cl` (relative stereo) [Example 180, rel-(3R,3aR,6aS)-4(4-Cyclopropylaminomethyl-benzoyl)-3-isopropyl-1-methanesulfonyl-hexahydro-pyrrolo[3,2-b]pyrrol-2-one hydrochloride] are 7.38 and “at least 6 hours”.
For `CCCN(C)Cc1ccc(C(=O)N2CC[C@H]3[C@H]2[C@@H](C(C)C)C(=O)N3S(C)(=O)=O)cc1.Cl` (relative stereo) [Example 181, rel-(3R,3aR,6aS)-3-Isopropyl-1-methanesulfonyl-4-{4-[(methyl-propyl-amino)-methyl]-benzoyl}-hexahydro-pyrrolo[3,2-b]pyrrol-2-one hydrochloride], the pIC50 in assay [1] was 7.38. Also, in the assay with Intracellular elastase, the duration of effect result was “at least 6 hours”.
Taken in the same sequence, the figures for `CCN(CC)Cc1ccc(C(=O)N2CC[C@H]3[C@H]2[C@@H](C(C)C)C(=O)N3S(C)(=O)=O)cc1.Cl` (relative stereo) [Example 182, rel-(3R,3aR,6aS)-4-(4-Diethylaminomethyl-benzoyl)-3-isopropyl-1-methanesulfonyl-hexahydro-pyrrolo[3,2-b]pyrrol-2-one hydrochloride] were 7.37 and “at least 6 hours”.
Taken in the same sequence, the figures for `COC(=O)[C@@H]1CCCN1Cc1ccc(C(=O)N2CC[C@H]3[C@H]2[C@@H](C(C)C)C(=O)N3S(C)(=O)=O)cc1` (relative stereo) [Example 183, 1-[4-(rel-6R-Isopropyl-4-methanesulfonyl-5-oxo-hexahydro-(3aS,6aR)-pyrrolo[3,2-b]pyrrole-1-carbonyl)-benzyl]-pyrrolidine-2S-carboxylic acid methyl ester hydrochloride] were 7.34 and “at least 6 hours”.
Turning to `CC(C)[C@H]1C(=O)N(S(C)(=O)=O)[C@H]2CCN(C(=O)c3ccc(CN4CCC5CCCCC5C4)cc3)[C@H]12.Cl` (relative stereo) [Example 184, rel-(3R,3aR,6aS)-3-Isopropyl-1-methanesulfonyl-4-[4-(octahydro-isoquinolin-2-ylmethyl)-benzoyl]-hexahydro-pyrrolo[3,2-b]pyrrol-2-one hydrochloride], the pIC50 in assay [1] was 7.92. Further, in the assay on Intracellular elastase, the duration of effect result is “at least 6 hours”.
On the same counts, the results for `CC(=O)N1CCN(Cc2ccc(C(=O)N3CC[C@H]4[C@H]3[C@@H](C(C)C)C(=O)N4S(C)(=O)=O)cc2)CC1` (relative stereo) [Example 185, rel-(3R,3aR,6aS)-4-[4-Acetyl-piperazin-1-ylmethyl)-benzoyl]-3-isopropyl-1-methanesulfonyl-hexahydro-pyrrolo[3,2-b]pyrrol-2-one hydrochloride] are 7.48 and “at least 6 hours”.
Taken in the same sequence, the figures for `CC(C)[C@H]1C(=O)N(S(C)(=O)=O)[C@H]2CCN(C(=O)c3ccc(CN4C(C)CCC4C)cc3)[C@H]12.Cl` (relative stereo) [Example 186, rel-(3R,3aR,6aS)-4-[4-(2,5-Dimethyl-pyrrolidin-1-ylmethyl)-benzoyl]-3-isopropyl-1-methanesulfonyl-hexahydro-pyrrolo[3,2-b]pyrrol-2-one hydrochloride] were 7.28 and “at least 6 hours”.
Taken in the same sequence, the figures for `CC(C)[C@H]1C(=O)N(S(C)(=O)=O)[C@H]2CCN(C(=O)c3ccc(CN4CCC(C(N)=O)CC4)cc3)[C@H]12.Cl` (relative stereo) [Example 187, rel-1-[4-(6R-Isopropyl-4-methanesulfonyl-5-oxo-hexahydro-(3aS,6aR)-pyrrolo[3,2-b]pyrrole-1-carbonyl)-benzyl]-piperidine-4-carboxylic acid amide hydrochloride] were 7.37 and “at least 6 hours”.
For `CC(C)[C@H]1C(=O)N(S(C)(=O)=O)[C@H]2CCN(C(=O)c3ccc(CN4CCNCC4)cc3)[C@H]12.Cl.Cl` (relative stereo) [Example 188, rel-(3R,3aR,6aS)-3-Isopropyl-1-methanesulfonyl-4-(4-piperazin-1-ylmethyl-benzoyl)-hexahydro-pyrrolo[3,2-b]pyrrol-2-one dihydrochloride], the pIC50 in assay [1] was 7.17. Further, the duration of effect entry with Intracellular elastase is reported as “at least 6 hours”.
`CC(C)[C@H]1C(=O)N(S(C)(=O)=O)[C@H]2CCN(C(=O)c3cccc(CN4CCN(C)CC4)c3)[C@H]12.Cl.Cl` (relative stereo) [Example 189, rel-(3R,3aR,6aS)-3-Isopropyl-1-methanesulfonyl-4-[3-(4-methyl-piperazin-1-ylmethyl)-benzoyl]-hexahydro-pyrrolo[3,2-b]pyrrol-2-one dihydrochloride]: in assay [1], the pIC50 was 7.21. For the same compound, the duration of effect entry in the assay with Intracellular elastase is “at least 6 hours”.
For the compound `CC(C)[C@H]1C(=O)N(S(C)(=O)=O)[C@H]2CCN(C(=O)c3cccc(CNC4CC4)c3)[C@H]12.Cl` (relative stereo) [Example 190, rel-(3R,3aR,6aS)-4-(3-Cyclopropylaminomethyl-benzoyl)-3-isopropyl-1-methanesulfonyl-hexahydro-pyrrolo[3,2-b]pyrrol-2-one hydrochloride], in assay [1], the pIC50 was 7.62. For the same compound, the duration of effect entry in the assay on Intracellular elastase was “at least 6 hours”.
On the same counts, the results for `CC(C)[C@H]1C(=O)N(S(C)(=O)=O)[C@H]2CCN(C(=O)c3cccc(CN4CCC(C(N)=O)CC4)c3)[C@H]12.Cl` (relative stereo) [Example 191, rel-1-[3-(6R-Isopropyl-4-methanesulfonyl-5-oxo-hexahydro-(3aS,6aR)-pyrrolo[3,2-b]pyrrole-1-carbonyl)-benzyl]-piperidine-4-carboxylic acid amide hydrochloride] are 7.39 and “at least 6 hours”.
Taken in the same sequence, the figures for `CC(C)[C@H]1C(=O)N(S(C)(=O)=O)[C@H]2CCN(C(=O)c3cccc(CN4CCCCC4)c3)[C@H]12` (relative stereo) [Example 192, rel-(3R,3aR,6aS)-3-Isopropyl-1-methanesulfonyl-4-(3-piperidin-1-ylmethyl-benzoyl)-hexahydro-pyrrolo]3,2-b]pyrrol-2-one hydrochloride] were 7.21 and “at least 6 hours”.
Turning to `CC(C)[C@H]1C(=O)N(S(C)(=O)=O)[C@H]2CCN(C(=O)c3cccc(CN4CCCC4)c3)[C@H]12` (relative stereo) [Example 193, rel-(3R,3aR,6aS)-3-Isopropyl-1-methanesulfonyl-4-(3-pyrroidin-1-ylmethyl-benzoyl)-hexahydro-pyrrolo[3,2-b]pyrrol-2-one hydrochloride], in assay [1], the pIC50 was 7.30. In addition, in the assay on Intracellular elastase, the duration of effect result is recorded as “at least 6 hours”.
Taken in the same sequence, the figures for `CC(C)[C@H]1C(=O)N(S(C)(=O)=O)[C@H]2CCN(C(=O)c3ccc(CN4C(C)CCCC4C)cc3)[C@H]12.Cl` (relative stereo) [Example 200, rel-(3R,3aR,6aS)-4-[4-(2,6-Dimethyl-piperidin-1-ylmethyl)-benzoyl]-3-isopropyl-1-methanesulfonyl-hexahydropyrrolo[3,2-b]pyrrol-2-one hydrochloride] were 7.28 and “at least 6 hours”.
